Values belong to the compound of their own block, whether it stands above or below them.
Tests used:
[1] = Plasma concentration-time profile of RTV and metabolites; type: in vivo; settings: human, 400 mg bid
[2] = molecular target: T1, CYP2J2 (Homo sapiens, UniProt P51589); settings: CYP2J2, linear scaled according to kinact/KI (SCHH approach)
T1 sequence (P51589 1-502): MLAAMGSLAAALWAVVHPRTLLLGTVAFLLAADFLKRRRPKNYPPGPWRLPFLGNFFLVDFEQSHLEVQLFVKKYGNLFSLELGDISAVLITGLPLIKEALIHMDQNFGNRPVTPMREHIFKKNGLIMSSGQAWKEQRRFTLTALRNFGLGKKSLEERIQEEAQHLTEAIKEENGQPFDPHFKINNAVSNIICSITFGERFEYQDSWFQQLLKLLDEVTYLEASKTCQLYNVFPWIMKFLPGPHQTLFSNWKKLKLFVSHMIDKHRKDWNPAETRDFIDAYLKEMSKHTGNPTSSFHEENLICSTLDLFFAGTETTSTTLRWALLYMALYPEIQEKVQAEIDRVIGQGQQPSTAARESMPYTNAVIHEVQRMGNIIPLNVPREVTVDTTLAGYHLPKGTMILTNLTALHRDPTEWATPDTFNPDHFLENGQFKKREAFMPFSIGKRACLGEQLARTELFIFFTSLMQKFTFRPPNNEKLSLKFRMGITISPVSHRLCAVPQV

[3] = system: CYP3A4; settings: ref [27] [11]; cited from earlier work
[4] = molecular target: CYP2D6 (Homo sapiens, UniProt P10635); settings: CYP2D6, R2 formation; ref [6], [34]; cited from earlier work
[5] = molecular target: T1, CYP2J2; assay: in vitro; settings: recombinant enzyme
[6] = system: CYP2J2; settings: projected; ref [14]; cited from earlier work

CYP2D6, sequence (P10635 whole entry): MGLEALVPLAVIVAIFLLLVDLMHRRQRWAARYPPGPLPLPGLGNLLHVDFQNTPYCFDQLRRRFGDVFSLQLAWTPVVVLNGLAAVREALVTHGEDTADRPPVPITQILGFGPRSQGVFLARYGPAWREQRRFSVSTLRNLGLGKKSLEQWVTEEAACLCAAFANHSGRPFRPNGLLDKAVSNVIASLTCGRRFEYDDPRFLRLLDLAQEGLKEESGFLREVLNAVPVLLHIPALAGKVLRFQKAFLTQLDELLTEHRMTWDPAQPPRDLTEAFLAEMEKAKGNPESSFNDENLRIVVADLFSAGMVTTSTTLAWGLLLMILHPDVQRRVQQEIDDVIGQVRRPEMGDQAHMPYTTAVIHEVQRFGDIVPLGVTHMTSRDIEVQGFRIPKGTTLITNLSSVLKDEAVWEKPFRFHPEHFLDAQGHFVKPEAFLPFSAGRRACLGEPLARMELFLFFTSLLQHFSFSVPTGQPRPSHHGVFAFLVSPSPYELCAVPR

Cmax [1]: 4.8 µM | slope at 1 μM [2]: 0.0044 ^4 μM min^-1
SMILES: CC(C)c1nc(CN(C)C(=O)N[C@H](C(=O)N[C@@H](Cc2ccccc2)C[C@H](O)[C@H](Cc2ccccc2)NC(=O)OCc2cncs2)C(C)C)cs1 [RTV, Ritonavir]
slope at 1 μM [3]: 0.17 ^2 μM min^-1 | Km [4]: 1.6 µM

inhibition at 5 min [5]: 95%
SMILES: C#C[C@]1(O)CC[C@H]2[C@@H]3CCC4=Cc5oncc5C[C@]4(C)[C@H]3CC[C@@]21C [danazol]

SMILES: CC(C)(C)c1ccc(C(=O)CCCN2CCC(OC(c3ccccc3)c3ccccc3)CC2)cc1 [ebastine]
contribution of CYP2J2 to intestinal ebastine hydroxylation [6]: ≤ 70%
